Results reported in article PMC3251870 (British Journal of Cancer, 2011).

What was measured:
[1] = test system: LOXIMVI melanoma cells; experiment: MTS cell viability, LOXIMVI; assay type: cell-based, human; conditions: LOXIMVI, 4 days
Protocol: (§1) All human cancer cell lines were maintained in RPMI media supplemented with 5% (lung and breast cancer cells) or 10% (melanoma cells) fetal bovine serum. […] Human mammary epithelial cells immortalised with telomerase were maintained in complete MEGM media from Cambrex (East Rutherford, NJ, USA).
(§2) Absorbance at 490 and 650 nm (reference wavelength) was measured by a Spectra Max (Molecular Devices, Sunnyvale, CA, USA) or a FlouroStar Omega (BMG Biosciences, Ortenberg, Germany) plate reader. Data were normalised to the untreated controls (100% viability). Each cell line was tested in 1–5 independent assays, each containing 4–8 replicates. IC50 values were calculated using DIVISA, a high-throughput software, developed in-house (manuscript in preparation), for storing and analysing drug sensitivity assays. Dose–response curves were plotted using a non-linear regression model and IC50s were determined from the fitted curves.

[2] = test system: SKMEL2 melanoma cells; experiment: MTS cell viability, SKMEL2; assay type: cell-based, human; conditions: SK-MEL2, MTS, 4 days
Protocol: as §1, §2

[3] = test system: MEL270 uveal melanoma cells; experiment: MTS cell viability, MEL270; assay type: cell-based, human; conditions: Homo sapiens, 96 h, 4 days
Protocol: as §1, §2

[4] = test system: OCM1 uveal melanoma cells; experiment: MTS cell viability, OCM1; assay type: cell-based, human; conditions: Homo sapiens, 96 h, 4 days
Protocol: as §1, §2

[5] = test system: OCM3 uveal melanoma cells; experiment: MTS cell viability, OCM3; assay type: cell-based, human; conditions: Homo sapiens, 96 h, 4 days
Protocol: as §1, §2

[6] = test system: OMM2.3 uveal melanoma cells; experiment: MTS cell viability, OMM2.3; assay type: cell-based, human; conditions: Homo sapiens, 96 h, 4 days
Protocol: as §1, §2

[7] = test system: HBEC30KT human bronchial epithelial cells; experiment: MTS cell viability, HBEC30KT; assay type: cell-based; conditions: Homo sapiens, Epithelial cell, 96 h, HBEC30KT, 4 days
Protocol: as §1, §2

[8] = test system: HCC4017 lung cancer cells; experiment: MTS cell viability, HCC4017; assay type: cell-based, human; conditions: Homo sapiens, 96 h; HCC4017, MTS, 4 days
Protocol: as §1, §2

[9] = test system: HBEC34KT human bronchial epithelial cells; experiment: MTS cell viability, HBEC34KT; assay type: cell-based; conditions: Homo sapiens, Epithelial cell, 96 h, HBEC34KT, 4 days
Protocol: as §1, §2

[10] = test system: HCC4018 lung cancer cells; experiment: MTS cell viability, HCC4018; assay type: cell-based, human; conditions: Homo sapiens, 96 h; HCC4018, MTS, 4 days
Protocol: as §1, §2

[11] = test system: Melanocytes; experiment: MTS cell viability, primary melanocytes; assay type: cell-based, human; conditions: Homo sapiens, Melanocyte, 96 h, 4 days
Protocol: as §1, §2

[12] = test system: patient-matched human bronchial epithelial cells/human non-small lung cancer cells (HBEC30KT/HCC4017, HBEC34KT/HCC4018); experiment: Cancer vs normal selectivity in patient-matched pairs (MTS viability); assay type: cell-based
Protocol: as §1, §2

[13] = test system: HCC15 cells; experiment: MTS cell viability, HCC15; assay type: cell-based, human; conditions: cell viability, Supplementary Figure 2C
Protocol: as §1, §2

[14] = test system: H2073 cells; experiment: MTS cell viability, H2073; assay type: cell-based, human; conditions: H2073 cells, verapamil plus depsipeptide
Protocol: as §1, §2

[15] = test system: H1993 cells; experiment: MTS cell viability, H1993; assay type: cell-based, human; conditions: H1993 cells, verapamil plus depsipeptide
Protocol: as §1, §2

[16] = test system: H1437 cells; experiment: MTS cell viability, H1437; assay type: cell-based, human; conditions: cell viability, Supplementary Figure 2D
Protocol: as §1, §2

CCC(=O)CCCCC[C@@H]1NC(=O)[C@H]2CCCCN2C(=O)[C@H]([C@@H](C)CC)NC(=O)[C@H](Cc2cn(OC)c3ccccc23)NC1=O [Apicidin, apicidin]
sensitivity (position in drug sensitivity profile of melanoma panel) [1]: sensitive
sensitivity (position in drug sensitivity profile of melanoma panel) [2]: on the sensitive side
IC50 [3]: 650 nM
IC50 [4]: 700 nM
IC50 [5]: 4000 nM
IC50 [6]: 400 nM
IC50 [7]: 90 nM
IC50 [8]: 120 nM
IC50 [9]: 790 nM
IC50 [10]: 30 nM
IC50 [11]: 200 nM
selectivity for cancer vs normal within a matched pair ([12]; one matched lung cancer/HBEC pair): no selectivity
selectivity for cancer vs normal within a matched pair ([12]; second pair of lines): ~25 fold

O=C(CCCCCN1C(=O)c2cccc3cccc(c23)C1=O)NO [Scriptaid]
relative sensitivity of HCC15 compared with H1437 cells [13]: more sensitive

COc1ccc(CCN(C)CCCC(C#N)(c2ccc(OC)c(OC)c2)C(C)C)cc1OC (centres unmarked) [verapamil]
restoration of sensitivity to depsipeptide by MDR1 inhibition [14]: partly re-sensitised
restoration of sensitivity to depsipeptide by MDR1 inhibition [15]: not affecting

Nc1ccccc1NC(=O)c1ccc(CNC(=O)OCc2cccnc2)cc1 [MS-275]
relative potency against H1437 vs HCC15 cells [16]: more potent against H1437 cells than HCC15 cells
